Measurements reported in patent US20250066445A1, “OBESITY TREATMENT AND PREVENTION METHODS” (VAULT BIOSCIENCES, INC., priority 2022, published 2025).

Columns and labels:
Format in all cases: in vivo, human
[1] = Example 13 clinical study combining dulaglutide and fasting; settings: One-Meal-A-Day, dose weeks 1-4: 0.2/0.375/0.375/0.6 mg
Excerpt: Example 13—Clinical Study of Combining Dulaglutide and Fasting Patients are subject to a combination HMT/HNT treatment protocol as described in Table 17 below. […] [table]

[2] = Example 15 clinical study combining dulaglutide and fasting; settings: 18-hour fasting, dose weeks 1-4: 0.2/0.375/0.375/0.6 mg
Excerpt: Example 15—Clinical Study of Combining Dulaglutide and Fasting Patients are subject to a combination HMT/HNT treatment protocol as described in Table 19 below. […] [table]

[3] = Example 14 clinical study combining dulaglutide and fasting; settings: 15-hour fasting, dose weeks 1-4: 0.2/0.375/0.375/0.6 mg
Excerpt: Example 14—Clinical Study of Combining Dulaglutide and Fasting Patients are subject to a combination HMT/HNT treatment protocol as described in Table 18 below. […] [table]

[4] = Example 1 clinical study combining semaglutide (injection) and fasting, Patient 1; settings: One-Meal-A-Day
Excerpt: Example 1—Clinical Study of Combining Semaglutide (Injection) and Fasting
Patient 1 was subject to a combination HMT/HNT treatment protocol as described below.

[5] = Example 2 clinical study combining semaglutide (injection) and fasting; settings: 15-hour fasting, dose weeks 1-4: .25/.50/.50/1 mg
Excerpt: Example 2—Clinical Study of Combining Semaglutide (injection) and Fasting Patients are subject to a combination HMT/HNT treatment protocol as described in Table 6 below. […] [table]

[6] = no exercise, no calorie counting
[7] = starting weight 282 lbs, 30 days, dose weeks 1-4: .25/.50/.50/1 mg, no exercise, no calorie counting

| Substance | Hunger [1] | Therapeutic effects (e.g. weight loss) [1, 6] | Hunger [2] | Therapeutic effects (e.g. weight loss) [2, 6] | Hunger [3] | Therapeutic effects (e.g. weight loss) [3, 6] | Hunger ([4]; 30 days, dose weeks 1-4: .25/.50/.50/1 mg) | Hunger ([4]; 30 days, dose weeks 1-4: .25/.50/.50/1 mg, listed as Semaglutide (Injection)) | Weight lost ([4]; in 30 days, no exercise, no caloric restrictions) [pounds] | % Bodyweight Reduction ([4]; starting weight 282 lbs, 30 days, dose weeks 1-4: .25/.50/.50/1 mg) [%] | % Bodyweight Reduction ([4]; starting weight 282 lbs, 30 days, dose weeks 1-4: .25/.50/.50/1 mg, listed as Semaglutide (Injection)) | Bodyweight reduction [4, 7] [lbs] | Ending Weight [4, 7] [lbs] | Hunger [5] | Therapeutic effects (e.g. weight loss) [5, 6] |
| --- | --- | --- | --- | --- | --- | --- | --- | --- | --- | --- | --- | --- | --- | --- | --- |
| Dulaglutide | no discernable or unusual hunger | Desirable therapeutics effects (e.g. weigh loss) are achieved | no discernable or unusual hunger | Desirable therapeutics effects (e.g. weigh loss) are achieved | no discernable or unusual hunger | Desirable therapeutics effects (e.g. weigh loss) are achieved | – | – | – | – | – | – | – | – | – |
| Semaglutide | – | – | – | – | – | – | No discernable/unusual hunger | no discernable or unusual hunger | 30 | −9.6 | approximately 9.6% | −30 | 252 | no discernable or unusual hunger | Desirable therapeutics effects (e.g. weigh loss) are achieved |
